Tests used:
hematopoietic cells [1] = test: VCN determination after 14 days in liquid culture of cells transduced with lentiviral vector; assay type: cell-based; details: 4 μg/mL protamine sulfate in media, 14 days liquid culture
Description: “Vector copy number” or “VCN” refers to the number of copies of vector in a sample divided by the number of cells. Generally the number of copies of vector is determined by quantitative polymerase chain reaction (qPCR) using a probe against the Psi sequence of the integrated provirus, and the number of cells is determined by qPCR using a probe against a human housekeeping gene for which there will be two copies per cell (one per chromosome).
An illustrative protocol for transduction of hematopoietic cells with lentiviral vectors as performed in the examples that follow is provided in FIG. 1, although in various experiments described in the examples, the transduction media included no TE, a single TE, or various combinations of TEs. Pre-stimulation included culturing the cells on plates coated with 2 ug/cm^2 RetroNectin™ (RN). […]
(§1) In another experiment, cells were transduced with either 1×10^7 TU/mL or 1×10^8 TU/mL of lentiviral vector in liquid culture in the presence of PGE2, and assayed for VCN determination after 14 days in liquid culture (FIG. 2B). […] A colony forming units (CFUs) assay was performed with transduced cells (FIG. 3A, CFCs=colony-forming cells), and VCN and percent (%) transduction were analyzed in single colonies (FIGS. 3B and 3C). […]

hematopoietic cells [2] = test: CFC/CFU assay: percent transduction analysed in single colonies; assay type: cell-based
Description: “Transduction efficiency” refers to the percentage of cells transduced with at least one provirus copy. For example if 1×10^6 cells are exposed to a virus and 0.5×10^6 cells are determined to have a least one copy of a virus in their genome, then the transduction efficiency is 50%. An illustrative method for determining transduction efficiency is flow cytometry.
As used herein, “CFC” refers to colony forming cells. The colony forming cell (CFC) assay is used to study the proliferation and differentiation pattern of hematopoietic progenitors by their ability to form colonies in a semisolid medium. The number and the morphology of the colonies formed by a fixed number of input cells provide preliminary information about the ability of progenitors to differentiate and proliferate. Exemplary assays are provided in Sarma et al. Colony forming cell (CFC) assay for human hematopoietic cells. J Vis Exp. 2010 Dec. 18; (46). […]
as §1

CD34+ cells = details: ex vivo culture of CD34+ cells; Heffner et al. 2018; cited from earlier work

## CCCCC(C)(C)[C@H](O)/C=C/[C@H]1[C@H](O)CC(=O)[C@@H]1C/C=C\CCCC(=O)O
Hematopoietic cells [1]; 1×10^7 or 1×10^8 TU/mL lentiviral vector, FIG. 2B
  transduction efficiency as determined by VCN/cell: increased transduction efficiency
Hematopoietic cells [1]; PGE2 10, 30 or 50 μg/mL, 2.5×10^7 or 5×10^7 TU/mL VSVG-pseudotyped GFP LV, FIG. 2A
  transduction efficiency as measured by vector copy numbers/cell: increase transduction efficiency
Hematopoietic cells [2]; highest tested concentration of PGE2, single colonies, FIG. 3C
  percent (%) transduction, cells transduced: up to 75%
Hematopoietic cells [2]; highest tested concentration, Example 2 (poloxamer F108 / LentiBOOST), FIG. 5C
  percent (%) transduction, cells transduced: up to 75%
CD34+ cells
  level of lentiviral transgene delivery: increase the level of lentiviral transgene delivery

— patent US12685751B2, “Methods for gene modification of hematopoietic cells” (Centro de Investigaciones Energéticas, Medioambientales y …, priority 2018, dated 2026)
